Data published in patent publication US8852554B2, “Radiolabelled PDE10 ligands” (Janssen Pharmaceutica NV, priority 2009, dated 2014).
“And” between values parts separate entries of the source, which are not always exact repeats. Identical values can stand only once.

Experiment: Biodistribution studies of the 18F tracers in rats
Format: in vivo, male Wistar rats
Details: rat
Procedure: Biodistribution studies were carried out in healthy male Wister rats (body weight 200-500 g) at 2 min, 30 min and 60 min post injection (p.i.) (n=3/time point). For |^18F|B-4 only the 2 min and 30 min time points were studied. […] Blood and major organs were collected in tared tubes and weighed. The radioactivity in blood, organs and other body parts was measured using an automated gamma counter. The distribution of radioactivity in different parts of the body at different time points p.i. of the tracer was calculated and expressed as percentage of injected dose (% ID), and as percentage of injected dose per gram tissue (% ID/g) for the selected organs. % ID is calculated as cpm in organ/total cpm recovered. For calculation of total radioactivity in blood, blood mass was assumed to be 7% of the body mass.

retention in the PDE10A-rich region striatum (biodistribution studies): no significant retention
% ID, Carcass (i.v., 2 min p.i.): 33.12 ± 2.3 % ID
% ID, Cerebellum (i.v., 2 min p.i.): 0.09 % ID and 0.091 ± 0.018 % ID
% ID, Cerebrum total (i.v., 2 min p.i.): 0.49 % ID and 0.490 ± 0.067 % ID
% ID, Cortex (i.v., 2 min p.i.): 0.069 ± 0.008 % ID
% ID, Heart (i.v., 2 min p.i.): 0.60 ± 0.1 % ID
% ID, Hippocampus (i.v., 2 min p.i.): 0.018 ± 0.004 % ID
% ID, Intestines (i.v., 2 min p.i.): 10.79 ± 1.5 % ID
% ID, Kidneys (i.v., 2 min p.i.): 4.24 ± 0.5 % ID
% ID, Liver (i.v., 2 min p.i.): 41.94 ± 2.2 % ID
% ID, Lungs (i.v., 2 min p.i.): 0.92 ± 0.2 % ID
% ID, Rest of cerebrum (i.v., 2 min p.i.): 0.367 ± 0.054 % ID
% ID, Spleen + Pancreas (i.v., 2 min p.i.): 1.92 ± 0.2 % ID
% ID, Stomach (i.v., 2 min p.i.): 3 % ID and 3.09 ± 0.1 % ID
% ID, Striatum (i.v., 2 min p.i.): 0.036 ± 0.012 % ID
% ID, Urine (i.v., 2 min p.i.): 0.09 ± 0.1 % ID
% ID/g, Blood (i.v., 2 min p.i.): 0.21 ± 0.02 % ID/g
% ID/g, Cerebellum (i.v., 2 min p.i.): 0.607 ± 0.019 % ID/g
% ID/g, Cerebrum + Cerebellum (i.v., 2 min p.i.): 0.47 ± 0.03 % ID/g
% ID/g, Cerebrum total (i.v., 2 min p.i.): 0.444 ± 0.026 % ID/g
% ID/g, Cortex (i.v., 2 min p.i.): 0.734 ± 0.148 % ID/g
% ID/g, Heart (i.v., 2 min p.i.): 0.76 ± 0.09 % ID/g
% ID/g, Hippocampus (i.v., 2 min p.i.): 0.307 ± 0.041 % ID/g
% ID/g, Liver (i.v., 2 min p.i.): 3.40 ± 0.31 % ID/g
% ID/g, Lungs (i.v., 2 min p.i.): 0.69 ± 0.34 % ID/g
% ID/g, Rest of cerebrum (i.v., 2 min p.i.): 0.411 ± 0.023 % ID/g
% ID/g, Spleen + Pancreas (i.v., 2 min p.i.): 1.47 ± 0.15 % ID/g
% ID/g, Striatum (i.v., 2 min p.i.): 0.648 ± 0.075 % ID/g
total initial brain uptake (i.v., 2 min p.i.): 0.59 % ID
% ID, Blood (i.v., 30 min p.i.): 2.40 ± 0.4 % ID
% ID, Carcass (i.v., 30 min p.i.): 25.50 ± 2.1 % ID
% ID, Cerebellum (i.v., 30 min p.i.): 0.028 ± 0.000 % ID
% ID, Cerebrum total (i.v., 30 min p.i.): 0.172 ± 0.012 % ID
% ID, Cortex (i.v., 30 min p.i.): 0.026 ± 0.004 % ID
% ID, Heart (i.v., 30 min p.i.): 0.21 ± 0.0 % ID
% ID, Hippocampus (i.v., 30 min p.i.): 0.006 ± 0.000 % ID
% ID, Intestines (i.v., 30 min p.i.): 14.67 ± 3.3 % ID
% ID, Kidneys (i.v., 30 min p.i.): 1.44 ± 0.2 % ID
% ID, Liver (i.v., 30 min p.i.): 45.29 ± 5.2 % ID
% ID, Lungs (i.v., 30 min p.i.): 0.42 ± 0.1 % ID
% ID, Rest of cerebrum (i.v., 30 min p.i.): 0.127 ± 0.010 % ID
% ID, Spleen + Pancreas (i.v., 30 min p.i.): 0.57 ± 0.2 % ID
% ID, Stomach (i.v., 30 min p.i.): 10 % ID and 9.73 ± 1.7 % ID
% ID, Striatum (i.v., 30 min p.i.): 0.013 ± 0.001 % ID
% ID, Urine (i.v., 30 min p.i.): 0.29 ± 0.0 % ID
Compound: Cc1cccc(COc2ccc(-c3nn(CC[18F])cc3-c3ccncc3)cc2)n1 [[^18F]B-1]
2 min/30 min ratios of % ID/g (normalized for body weight), all brain regions (i.v.): ≥ 2.49
Clearance, 2 min/30 min ratio of % ID/g (normalized for body weight), Blood (i.v.): 1.65
Clearance, 2 min/30 min ratio of % ID/g (normalized for body weight), Cerebellum (i.v.): 4.01
Clearance, 2 min/30 min ratio of % ID/g (normalized for body weight), Cerebrum total (i.v.): 2.88
Clearance, 2 min/30 min ratio of % ID/g (normalized for body weight), Cortex (i.v.): 3.47
Clearance, 2 min/30 min ratio of % ID/g (normalized for body weight), Hippocampus (i.v.): 3.06
Clearance, 2 min/30 min ratio of % ID/g (normalized for body weight), Rest of cerebrum (i.v.): 2.86
Clearance, 2 min/30 min ratio of % ID/g (normalized for body weight), Striatum (i.v.): 2.49
Clearance, 2 min/60 min ratio of % ID/g (normalized for body weight), Blood (i.v.): 1.83
Clearance, 2 min/60 min ratio of % ID/g (normalized for body weight), Cerebellum (i.v.): 6.60
Clearance, 2 min/60 min ratio of % ID/g (normalized for body weight), Cerebrum total (i.v.): 3.60
Clearance, 2 min/60 min ratio of % ID/g (normalized for body weight), Cortex (i.v.): 5.55
Clearance, 2 min/60 min ratio of % ID/g (normalized for body weight), Hippocampus (i.v.): 3.63
Clearance, 2 min/60 min ratio of % ID/g (normalized for body weight), Rest of cerebrum (i.v.): 3.29
Clearance, 2 min/60 min ratio of % ID/g (normalized for body weight), Striatum (i.v.): 3.41
% ID/g normalized for body weight, Blood (i.v., 2 min p.i.): 0.06 ± 0.01 % ID/g × body wt. in kg
% ID/g normalized for body weight, Cerebellum (i.v., 2 min p.i.): 0.164 ± 0.01 % ID/g × body wt. in kg
% ID/g normalized for body weight, Cerebrum + Cerebellum (i.v., 2 min p.i.): 0.13 ± 0.01 % ID/g × body wt. in kg
% ID/g normalized for body weight, Cerebrum total (i.v., 2 min p.i.): 0.120 ± 0.01 % ID/g × body wt. in kg
% ID/g normalized for body weight, Cortex (i.v., 2 min p.i.): 0.199 ± 0.04 % ID/g × body wt. in kg
% ID/g normalized for body weight, Heart (i.v., 2 min p.i.): 0.21 ± 0.02 % ID/g × body wt. in kg
% ID/g normalized for body weight, Hippocampus (i.v., 2 min p.i.): 0.083 ± 0.01 % ID/g × body wt. in kg
% ID/g normalized for body weight, Kidneys (i.v., 2 min p.i.): 0.47 ± 0.05 % ID/g × body wt. in kg
% ID/g normalized for body weight, Liver (i.v., 2 min p.i.): 0.92 ± 0.05 % ID/g × body wt. in kg
% ID/g normalized for body weight, Lungs (i.v., 2 min p.i.): 0.19 ± 0.08 % ID/g × body wt. in kg
% ID/g normalized for body weight, Rest of cerebrum (i.v., 2 min p.i.): 0.111 ± 0.00 % ID/g × body wt. in kg
% ID/g normalized for body weight, Spleen + Pancreas (i.v., 2 min p.i.): 0.40 ± 0.03 % ID/g × body wt. in kg
% ID/g normalized for body weight, Striatum (i.v., 2 min p.i.): 0.175 ± 0.02 % ID/g × body wt. in kg
striatum/blood ratio (from % ID/g normalized for body weight) (i.v., 2 min p.i.): 3.10
striatum/cerebellum ratio (from % ID/g normalized for body weight) (i.v., 2 min p.i.): 1.07
striatum/cortex ratio (from % ID/g normalized for body weight) (i.v., 2 min p.i.): 0.88
striatum/hippocampus ratio (from % ID/g normalized for body weight) (i.v., 2 min p.i.): 2.11
% ID/g normalized for body weight, Blood (i.v., 30 min p.i.): 0.03 ± 0.01 % ID/g × body wt. in kg
